# Assay results reported in US8350036B2, “Bisnaphthalimidopropyl derivative compounds with anti-parasite and anti-cancer activity” (Universidade Do Porto, priority 2006, dated 2013).
# Where two headings read alike, the source gives them in different places.
# Experiments:
# [1] = tested on: intracellular amastigotes of L. infantum; assay: Intracellular amastigotes in differentiated THP-1 cells (luciferase assay); assay type: cell-based, Leishmania infantum; settings: for IC50: Leishmania infantum, intracellular amastigotes in THP-1 cells, 72 h of incubation, read-out: IC50(μM) Amastigote intracellular; for parasite growth inhibition, intracellular amastigote: range of concentration 0.39 to 12.50 μM
# Procedure: (§1) The axenic amastigote of Leishmania infantum (clone MHOM/MA671TMA-P263) transfected with reporter gene that encode to the luciferase enzyme (Roy et al, 2000) were grown at 37° C. with 5% CO2 in a cell-free medium called MAA (medium for axenically grown amastigote). The medium MAA/20, consisted of modified medium 199 (Hanks' balanced salts) supplemented with 0.5% soya trypto-casein, 15 mM D-glucose, 5 mM L-glutamine, 4 mM NaHCO3, 0.023 mM bovine hemin, 25 mM HEPES final pH, 6.5 and 20% inactivated fetal calf serum. The parasites were incubated with different concentrations during 3 days at 37° C. with 5% CO2. The growth of the parasites was done by measuring the luciferase activity using luciferin as a substract. The intracellular amastigotes of L. infantum were cultured in a macrophage differentiated human leukemia monocyte cell line (THP-1 cells). The THP-1 cells were differentiated during 2 days with 20 ng/ml of PMA in RPMI-1640 medium supplemented with 10% FCS, 2 mM glutamine, 100 IU of penicillin/ml and 100 μg/ml of streptomycin. The non differentiated cells were washed with prewarmed medium and the adherent cells sinfected with luciferase-expressing axenic amastigotes at a parasite/macrophage ratio of 3:1 for 4 h at 37° C. with 5% CO2. Noninternalized parasites were removed and serial dilutions of each drug were made in the RPMI medium supplemented with 10% FCS. After 3 days of drug exposure, wells containing adherent differentiated THP-1 cells were washed and luciferase activity was determined.
# Cytotoxicity determined by luciferase assay. […] The results were representative of medium±SD at least 5 assays.
# [2] = tested on: Leishmania infantum promastigotes; assay: Growth of luciferase-expressing promastigotes (luciferase assay); assay type: cell-based; settings: for IC50: Leishmania infantum; for parasite growth inhibition, promastigote: range of concentration 0.39 to 12.50 μM, FIG. 1
# Procedure: Leishmania infantum (clone MHOM/MA671TMA-P263) promastigotes transfected with reporter gene that encode to the luciferase enzyme (Roy et al, 2000) were grown at 27° C. in RPMI medium (Gibco) supplemented with 10% of heat inactivated fetal bovine serum (FBS-Gibco), 2 mM L-glutamine (Gibco), 20 mM Hepes (Gibco), 100 U/ml penicillin (Gibco) and 100 μg/ml streptomycin (Gibco). The parasites (10^6/ml) in the logarithmic phase (2 days of culture) were incubated with a serial range of concentrations of each drug for 3 days at 27° C. and the growth of parasites was determined by using the luciferase activity using luciferin as subtract.
# FIG. 1. […] The results are representative of 5 assays made independently. […] The growth curves represented indicate the percentage growth related to the control for each concentration after luciferase activity determination. Each point represents a mean of 3 assays±STD.
# (§2) Cytotoxicity determined by luciferase assay. The results were obtained after treatment of different parasite forms with a range of different drug concentrations 0.30 to 100 μM after 72 h of incubation. The results were representative of medium±SD at least 5 assays.
# [3] = tested on: CaCo-2 colon carcinoma; assay: Cytotoxicity against CaCo-2 cells by MTT assay; assay type: cell-based; settings: Homo sapiens, 0.01-40 μM
# Procedure: Cytotoxity was evaluated for CaCo-2 colon carcinoma using the MTT assay with protocols appropriate for the individual test system.^11,13 CaCo-2 cells were maintained in Earle's Minimum Essential Medium (Sigma), supplemented with 10% fetal calf serum (Biosera), 2 mM L-glutamine (Sigma), 1% non-essential amino acids (Sigma), 100 IU mL^−1 penicillin and 100 μg mL^−1 streptomycin (Sigma). Exponentially growing cells were plated at 2×10^4 cells cm^−2 into 96-well plates and incubated for 24 h before the addition of drugs. Stock solutions of compounds were initially dissolved in 20% DMSO and further diluted with fresh complete medium. After 24 and 48 h of incubation at 37° C., the medium was removed and 200 μl of MTT reagent (1 mg/mL) in serum free medium was added to each well. The plates were incubated at 37° C. for 4 h. At the end of the incubation period, the medium was removed and pure DMSO (200 μl) was added to each well. The metabolized MTT product dissolved in DMSO was quantified by reading the absorbance at 560 nm on a micro plate reader (Dynex Technologies, USA). IC50 values are defined, as the drug concentrations required to reduce the absorbance by 50% of the control values. The IC50 values were calculated from the equation of the logarithmic line determined by fitting the best line (Microsoft Excel) to the curve formed from the data. The IC50 value was obtained from the equation for y=50 (50% value).
# [4] = tested on: axenic amastigote of Leishmania infantum; assay: Growth of luciferase-expressing axenic amastigotes (luciferase assay); assay type: cell-based; settings: for parasite growth inhibition, axenic amastigote: FIG. 1; for IC50: Leishmania infantum, axenic amastigotes, 72 h of incubation, 37° C.
# Procedure: as §1
# FIG. 1. […] The results are representative of 5 assays made independently. The promastigote and axenic amastigote were incubated with a serial range of drug concentrations 0.30 to 12.5 μM, at 27° C. and 3.125 to 100 μM at 37° C. in 5% CO2, respectively, during 3 days. The growth curves represented indicate the percentage growth related to the control for each concentration after luciferase activity determination. Each point represents a mean of 3 assays±STD.
# as §2
# [5] = Solubility; assay type: physicochemical; settings: effect of longer alkyl central chain
# [6] = most solvents; previously reported (Kong et al, 2000); cited from earlier work
# [7] = promastigote, unit inferred, read-out: IC50±SD promastigote
# [8] = promastigotes, 72 h of incubation, 27° C., read-out: IC50(μM) Promastigotes
# [9] = 24 h drug exposure, read-out: IC50 (μM) 24 h
# [10] = 48 h drug exposure, read-out: IC50 (μM) 48 h
Compound,IC50 [1],"parasite growth inhibition, intracellular amastigote [1]","IC50 [2, 7]","IC50 [2, 8]","parasite growth inhibition, promastigote [2]","IC50 [3, 9]","IC50 [3, 10]","parasite growth inhibition, axenic amastigote [4]",IC50 [4],aqueous solubility [5],solubility [6]
"O=C1c2cccc3cccc(c23)C(=O)N1CCCNCCCCNCCCNCCCN1C(=O)c2cccc3cccc(c23)C1=O [BNIPSpd, Bisnaphthalimidopropylespermidine]",8.92 ± 1.07 µM,dose dependent inhibition of parasite growth,1.86 ± 0.82 µM,1.86 ± 0.82 µM,dose dependent inhibition of parasite growth,0.15 µM,0.47 µM,dose dependent inhibition of parasite growth,9.61 ± 1.84 µM,,
"O=C1c2cccc3cccc(c23)C(=O)N1CCCNCCCCCCCCCNCCCN1C(=O)c2cccc3cccc(c23)C1=O [BNIPDanon, Bisnaphthalimidopropyldiaminononane]",6.03 ± 0.67 µM,dose dependent inhibition of parasite growth,2.09 ± 0.54 µM,2.09 ± 0.54 µM,dose dependent inhibition of parasite growth,3.6 µM,0.67 µM,dose dependent inhibition of parasite growth,17.4 ± 0.97 µM,helps aqueous solubility,
"O=C1c2cccc3cccc(c23)C(=O)N1CCCNCCCCCCCNCCCN1C(=O)c2cccc3cccc(c23)C1=O [BNIPDahep, Bisnaphthalimidopropyldiaminoheptane]",,,,,,3.2 µM,0.94 µM,,,,
"O=C1c2cccc3cccc(c23)C(=O)N1CCCNCCCCCCNCCCN1C(=O)c2cccc3cccc(c23)C1=O [BNIPDahex, Bisnaphthalimidopropyldiaminohexane]",,,,,,0.65 µM,2 µM,,,,
"O=C1c2cccc3cccc(c23)C(=O)N1CCCNCCCCNCCCN1C(=O)c2cccc3cccc(c23)C1=O [BNIPPut, Bisnaphthalimidopropylputrescine]",4.53 ± 0.54 µM,dose dependent inhibition of parasite growth,0.4 ± 0.15 µM,0.4 ± 0.15 µM,dose dependent inhibition of parasite growth,,,dose dependent inhibition of parasite growth,5.49 ± 0.67 µM,,not soluble in most solvents
"O=C1c2cccc3cccc(c23)C(=O)N1CCCNCCCCCCCCNCCCN1C(=O)c2cccc3cccc(c23)C1=O [BNIPDaoct, Bisnaphthalimidopropyldiaminooctane]",2.43 ± 0.19 µM,dose dependent inhibition of parasite growth,≤ 0.39 µM,≤ 0.39 µM,dose dependent inhibition of parasite growth,6.2 µM,3.2 µM,didn't inhibited the parasite growth up to 50 μM,≥ 50 µM,helps aqueous solubility,
"O=C1c2cccc3cccc(c23)C(=O)N1CCCNCCCNCCCNCCCN1C(=O)c2cccc3cccc(c23)C1=O [BNIPDpta, Bisnaphthalimidopropyldipropiltriamine]",4.22 ± 1.07 µM,dose dependent inhibition of parasite growth,1.09 ± 0.12 µM,1.09 ± 0.12 µM,dose dependent inhibition of parasite growth,5 µM,3.2 µM,dose dependent inhibition of parasite growth,5.24 ± 0.93 µM,,
"O=C1c2cccc3cccc(c23)C(=O)N1CCCNCCCCCCCCCCNCCCN1C(=O)c2cccc3cccc(c23)C1=O [BNIPDadec, Bisnaphthalimidopropyldiaminodecane]",,,,,,0.77 µM,0.36 µM,,,helps aqueous solubility,
"O=C1c2cccc3cccc(c23)C(=O)N1CCCNCCCCCCCCCCCCNCCCN1C(=O)c2cccc3cccc(c23)C1=O [BNIPDadod, Bisnaphthalimidopropyldiaminododecane]",,,,,,4.5 µM,2.7 µM,,,,
"O=C1c2cccc3cccc(c23)C(=O)N1CCCNCCNCCNCCCN1C(=O)c2cccc3cccc(c23)C1=O [BNIPDeta, Bisnaphthalimidopropyldietiltriamine]",9.52 ± 0.56 µM,dose dependent inhibition of parasite growth,0.96 ± 0.17 µM,0.96 ± 0.17 µM,dose dependent inhibition of parasite growth,21.7 µM,22.3 µM,dose dependent inhibition of parasite growth,6.97 ± 0.2 µM,,
"O=C1c2cccc3cccc(c23)C(=O)N1CCCNCCCCCNCCCN1C(=O)c2cccc3cccc(c23)C1=O [BNIPDapen, Bisnaphthalimidopropyldiaminopentane]",,,,,,11 µM,6.5 µM,,,,
